Key:
CDK4/cyclin D3 = target: T1, CDK4/cyclin D3 (Homo sapiens, UniProt P11802); assay: Human CDK4/cyclin D3 inhibitory activity (QS S Assist CDK4/Cyclin D3_FP Kit, IMAP fluorescent polarization); format: biochemical; conditions: read-out: CDK4 Activity symbol
T1 construct: purchased Carna Biosciences, Inc. QS S Assist CDK4/Cyclin D3_FP Kit
Method in brief: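 Kinase reactions used kit CDK4/cyclin D3 at 12.5–25 ng/well with the kit ATP/substrate/metal mix in 20 mM HEPES (pH 7.4), 0.01% Tween20 and 2 mM DTT, run 45 min at room temperature. Phosphorylation was detected by IMAP fluorescence polarization (ex 485/em 535 nm) after 30 min binding in the dark. IC50 was fitted from percent inhibition against DMSO controls with and without enzyme.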

CDK2/cyclin A2 = target: T2, CDK2/cyclin A2 (Homo sapiens, UniProt P24941); assay: Human CDK2/cyclin A2 inhibitory activity (QS S Assist CDK2/Cyclin A2_FP Kit, IMAP fluorescent polarization); format: biochemical; conditions: read-out: CDK2 Activity symbol
T2 construct: purchased Carna Biosciences, Inc. QS S Assist CDK2/Cyclin A2_FP Kit
Method in brief: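 Kit CDK2/cyclin A2 (2.5 ng/well) was reacted with kit ATP/substrate/metal in 20 mM HEPES pH 7.4, 0.01% Tween 20 and 2 mM DTT for 60 min at room temperature. IMAP binding reagent was added for 30 min, then fluorescence polarization was read at 485/535 nm. IC50 came from dose-response fitting of percent inhibition.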

T1 sequence (P11802 whole entry): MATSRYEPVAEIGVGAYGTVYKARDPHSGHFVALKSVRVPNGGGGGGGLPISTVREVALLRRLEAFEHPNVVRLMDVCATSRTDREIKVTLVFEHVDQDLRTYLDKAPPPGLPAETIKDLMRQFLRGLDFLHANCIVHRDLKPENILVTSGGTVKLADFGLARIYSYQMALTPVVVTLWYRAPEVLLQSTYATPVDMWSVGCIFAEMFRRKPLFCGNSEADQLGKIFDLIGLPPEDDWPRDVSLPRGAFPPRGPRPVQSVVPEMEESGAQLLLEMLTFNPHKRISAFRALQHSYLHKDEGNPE
T1 sequence (P30281 whole entry partner): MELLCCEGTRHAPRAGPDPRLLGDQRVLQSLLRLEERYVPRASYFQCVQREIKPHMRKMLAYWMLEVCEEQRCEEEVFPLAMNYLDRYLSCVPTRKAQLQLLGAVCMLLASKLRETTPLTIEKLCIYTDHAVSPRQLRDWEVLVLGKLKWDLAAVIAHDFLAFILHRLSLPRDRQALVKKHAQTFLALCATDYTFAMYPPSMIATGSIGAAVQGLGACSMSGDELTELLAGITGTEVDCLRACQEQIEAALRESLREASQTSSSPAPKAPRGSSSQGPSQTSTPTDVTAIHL

| Structure (SMILES) | IC50 (CDK4/cyclin D3) [nM] | IC50 (CDK2/cyclin A2) [nM] |
| --- | --- | --- |
| C[C@@H](O)c1cc2cnc(Nc3ccc4c(n3)CCN(C3CN(C)C3)C4)nc2c(N2CCC(C#N)CC2)n1 [Compound 279] | < 10 | ≥ 100 |
| CC(O)c1cc2cnc(Nc3ccc4c(n3)CC3CCC4N3CCO)nc2c(N2CCCCC2)n1 (stereo not drawn) [Compound 280] | 10 to 100 | ≥ 100 |
| C[C@@H](O)c1cc2cnc(Nc3ccc(N4CCNCC4=O)cn3)nc2c(N2C3CCCC2CC3)n1 [Compound 281] | < 10 | ≥ 100 |
| C[C@@H](O)c1cc2cnc(Nc3ccc4c(n3)CCN(C3CCOCC3)C4)nc2c(N2CCCCC2)n1 [Compound 282] | < 10 | ≥ 100 |
| C[C@@H](O)c1cc2cnc(Nc3ccc4c(n3)CCN([C@H]3CC[C@H](O)CC3)C4)nc2c(N2CCCCC2)n1 [Compound 283] | 10 to 100 | ≥ 100 |
| C[C@@H](O)c1cc2cnc(Nc3ccc4c(n3)CCN([C@H]3CC[C@@H](O)CC3)C4)nc2c(N2CCCCC2)n1 [Compound 284] | 10 to 100 | ≥ 100 |
| C[C@@H](O)c1cc2cnc(Nc3ccc4c(n3)CCN(C(=O)Cc3ccncc3)C4)nc2c(N2CCCCC2)n1 [Compound 285] | 10 to 100 | ≥ 100 |
| C[C@@H](O)c1cc2cnc(Nc3ccc4c(n3)CCN(C(=O)Cn3ccnc3)C4)nc2c(N2CCCCC2)n1 [Compound 286] | < 10 | ≥ 100 |
| C[C@@H](O)c1cc2cnc(Nc3ccc(N4CCNCC4)cn3)nc2c(N2CCOC[C@@H]2C)n1 [Compound 288] | < 10 | ≥ 100 |
| CC(O)c1cc2cnc(Nc3ccc(N4CCNCC4)cn3)nc2c(N2CCOCC2C)n1 (stereo not drawn) [Compound 289] | < 10 | ≥ 100 |
| C[C@@H](O)c1cc2cnc(Nc3ccc(CN4CCN(C)CC4)cn3)nc2c(N2CCOC[C@@H]2C)n1 [Compound 290] | < 10 | ≥ 100 |
| CC(O)c1cc2cnc(Nc3ccc(CN4CCN(C)CC4)cn3)nc2c(N2C3CCC2COC3)n1 (stereo not drawn) [Compound 292] | < 10 | ≥ 100 |
| C[C@@H](O)c1cc2cnc(Nc3ccc(CN4CCN(CCO)CC4)cn3)nc2c(N2CCOC[C@@H]2C)n1 [Compound 293] | 10 to 100 | ≥ 100 |
| CC(O)c1cc2cnc(Nc3ccc(CN4CCN(CCO)CC4)cn3)nc2c(N2CCOCC2C)n1 (stereo not drawn) [Compound 294] | < 10 | ≥ 100 |
| CC(O)c1cc2cnc(Nc3ccc(CN4CCN(CCO)CC4)cn3)nc2c(N2C3CCC2COC3)n1 (stereo not drawn) [Compound 295] | < 10 | ≥ 100 |
| Cc1nc(Nc2ncc3cc([C@@H](C)O)nc(N4CCOC[C@@H]4C)c3n2)ccc1N1CCNCC1 [Compound 296] | < 10 | ≥ 100 |
| Cc1nc(Nc2ncc3cc([C@@H](C)O)nc(N4CCOC[C@H]4C)c3n2)ccc1N1CCNCC1 [Compound 297] | < 10 | ≥ 100 |
| Cc1nc(Nc2ncc3cc([C@@H](C)O)nc(N4C5CCC4COC5)c3n2)ccc1N1CCNCC1 [Compound 298] | < 10 | ≥ 100 |
| C[C@@H](O)c1cc2cnc(Nc3ccc(N4CCNCC4=O)cn3)nc2c(N2CCOC[C@@H]2C)n1 [Compound 299] | 10 to 100 | ≥ 100 |

| Structure (SMILES) | IC50 (CDK4/cyclin D3) [nM] | IC50 (CDK2/cyclin A2) [nM] |
| --- | --- | --- |
| CC(O)c1cc2cnc(Nc3ccc(N4CCNCC4=O)cn3)nc2c(N2CCOCC2C)n1 (stereo not drawn) [Compound 300] | 10 to 100 | ≥ 100 |
| CC(O)c1cc2cnc(Nc3ccc(N4CCNCC4=O)cn3)nc2c(N2C3CCC2COC3)n1 (stereo not drawn) [Compound 301] | 10 to 100 | ≥ 100 |
| CC(O)c1cc2cnc(Nc3ccc(N4CCNCC4=O)cn3)nc2c(N2CCCC2C)n1 (stereo not drawn) [Compound 302] | < 10 | 10 to 100 |
| CC(O)c1cc2cnc(Nc3ccc(N4CCNCC4=O)cn3)nc2c(N2CCCCC2C)n1 (stereo not drawn) [Compound 303] | < 10 | ≥ 100 |
| C[C@@H](O)c1cc2cnc(Nc3ccc(C(=O)N4CCCN(C)CC4)cn3)nc2c(N2CCCCC2)n1 [Compound 304] | < 10 | 10 to 100 |
| Cc1nc(Nc2ncc3cc([C@@H](C)O)nc(N4CCCCC4)c3n2)ccc1N1CCCNCC1=O [Compound 305] | < 10 | 10 to 100 |
| Cc1nc(Nc2ncc3cc([C@@H](C)O)nc(N4CCCCCC4)c3n2)ccc1N1CCCNCC1=O [Compound 306] | < 10 | 10 to 100 |
| C[C@@H](O)c1cc2cnc(Nc3ccc(N4CCCNCC4=O)cn3)nc2c(N2CCCCCC2)n1 [Compound 307] | < 10 | 10 to 100 |
| C[C@@H](O)c1cc2cnc(Nc3ccc(C(=O)N4CCN(CCO)CC4)cn3)nc2c(N2CCCCC2)n1 [Compound 308] | < 10 | ≥ 100 |
| C[C@@H](O)c1cc2cnc(Nc3ccc(C(=O)N4CCN(C)CC4)cn3)nc2c(N2CCCCC2)n1 [Compound 309] | < 10 | ≥ 100 |
| C[C@@H](O)c1cc2cnc(Nc3ccc(C(=O)N4CCOCC4)cn3)nc2c(N2CCCCC2)n1 [Compound 310] | < 10 | ≥ 100 |
| C[C@@H](O)c1cc2cnc(Nc3ccc(C(=O)N4CCC(O)CC4)cn3)nc2c(N2CCCCC2)n1 [Compound 311] | < 10 | ≥ 100 |
| C[C@@H](O)c1cc2cnc(Nc3ccc(C(=O)N4CC[C@@H](N(C)C)C4)cn3)nc2c(N2CCCCC2)n1 [Compound 312] | < 10 | ≥ 100 |
| C[C@@H](O)c1cc2cnc(Nc3ccc(C(=O)N4CC[C@H](N(C)C)C4)cn3)nc2c(N2CCCCC2)n1 [Compound 313] | < 10 | ≥ 100 |
| C[C@@H](O)c1cc2cnc(Nc3ccc(C(=O)N4CCS(=O)(=O)CC4)cn3)nc2c(N2CCCCC2)n1 [Compound 314] | < 10 | ≥ 100 |
| C[C@@H](O)c1cc2cnc(Nc3ccc(C(=O)N4CCC(N(C)C)CC4)cn3)nc2c(N2CCCCC2)n1 [Compound 315] | < 10 | ≥ 100 |
| C[C@@H](O)c1cc2cnc(Nc3ccc(C(=O)N(C)CCN(C)C)cn3)nc2c(N2CCCCC2)n1 [Compound 316] | < 10 | ≥ 100 |
| CCN1CCN(C(=O)c2ccc(Nc3ncc4cc([C@@H](C)O)nc(N5CCCCC5)c4n3)nc2)CC1 [Compound 317] | < 10 | ≥ 100 |
| C[C@@H](O)c1cc2cnc(Nc3ccc(C(=O)N4CCN(C)CC4)cn3)nc2c(N2CCCC2)n1 [Compound 318] | < 10 | ≥ 100 |

| Structure (SMILES) | IC50 (CDK4/cyclin D3) [nM] | IC50 (CDK2/cyclin A2) [nM] |
| --- | --- | --- |
| C[C@@H](O)c1cc2cnc(Nc3ccc(C(=O)N4CCN(C)CC4)cn3)nc2c(N2CCCCCC2)n1 [Compound 319] | < 10 | 10 to 100 |
| C[C@@H](O)c1cc2cnc(Nc3ccc(C(=O)N4CCN(C)CC4)cn3)nc2c(N2CCC(F)CC2)n1 [Compound 320] | < 10 | ≥ 100 |
| CC(O)c1cc2cnc(Nc3ccc(CN4CCN(C)CC4)cn3)nc2c(N2CC3CCC(C2)O3)n1 (stereo not drawn) [Compound 321] | < 10 | ≥ 100 |
| C[C@@H](O)c1cc2cnc(Nc3ccc(CN4CCN(C)CC4)cn3)nc2c(N2CCOCC2(C)C)n1 [Compound 322] | < 10 | ≥ 100 |
| O=C1CNCCCN1c1ccc(Nc2ncc3cc(C4COC4)nc(N4CCCCC4)c3n2)nc1 [Compound 323] | < 10 | ≥ 100 |
| C[C@@H](O)c1cc2cnc(Nc3ccc(N4CC5(C4)CN(C4COC4)C5)nn3)nc2c(N2CCCCC2)n1 [Compound 324] | < 10 | ≥ 100 |
| C[C@@H](O)c1cc2cnc(Nc3ccc(CN4CCC5(CC4)COC5)cn3)nc2c(N2CCCCC2)n1 [Compound 325] | < 10 | ≥ 100 |
| C[C@@H](O)c1cc2cnc(Nc3ccc(CN4CCC(C#N)CC4)cn3)nc2c(N2CCCCC2)n1 [Compound 326] | < 10 | ≥ 100 |
| Cc1nc(Nc2ncc3cc([C@@H](C)O)nc(N4CCCCC4)c3n2)ccc1N1CC2(C1)CN(C1COC1)C2 [Compound 327] | < 10 | ≥ 100 |
| Cc1nc(Nc2ncc3cc([C@@H](C)O)nc(N4CCCCC4)c3n2)ccc1N1CCN(C2CN(CCO)C2)CC1 [Compound 328] | < 10 | ≥ 100 |
| CC(O)c1cc2cnc(Nc3ccc(N4CCCNCC4=O)cn3)nc2c(N2C3CCCC2CC3)n1 (stereo not drawn) [Compound 329] | < 10 | 10 to 100 |
| C[C@@H](O)c1cc2cnc(Nc3ccc4c(n3)CCN(C(=O)Cc3cccnc3)C4)nc2c(N2CCCCC2)n1 [Compound 330] | 10 to 100 | ≥ 100 |
| C[C@@H](O)c1cc2cnc(Nc3ccc4c(n3)CCN(C(=O)Cn3cccn3)C4)nc2c(N2CCCCC2)n1 [Compound 331] | 10 to 100 | ≥ 100 |
| C[C@@H](O)c1cc2cnc(Nc3ccc4c(n3)CCN(C(=O)Cn3cncn3)C4)nc2c(N2CCCCC2)n1 [Compound 332] | 10 to 100 | ≥ 100 |
| C[C@@H](O)c1cc2cnc(Nc3ccc4c(n3)CCN(C(=O)Cn3cnnc3)C4)nc2c(N2CCCCC2)n1 [Compound 333] | < 10 | ≥ 100 |
| Cc1nc(Nc2ncc3cc([C@@H](C)O)nc(N4CCCCC4)c3n2)ccc1N1CCN(C2CN(C)C2)CC1 [Compound 334] | < 10 | ≥ 100 |
| C[C@@H](O)c1cc2cnc(Nc3ccc4c(n3)CCN(C(=O)Cc3ccccn3)C4)nc2c(N2CCCCC2)n1 [Compound 335] | 10 to 100 | ≥ 100 |
| C[C@@H](O)c1cc2cnc(Nc3ccc4c(n3)CCN(C(=O)Cn3ccnn3)C4)nc2c(N2CCCCC2)n1 [Compound 336] | 10 to 100 | ≥ 100 |
| C[C@@H](O)c1cc2cnc(Nc3ccc4c(n3)CCN(C(=O)Cn3nccn3)C4)nc2c(N2CCCCC2)n1 [Compound 337] | 10 to 100 | ≥ 100 |

Reference: US11084814B2, “Pyrido[3, 4-d]pyrimidine derivative and pharmaceutically acceptable salt thereof” (Teijin Pharma Limited, priority 2016, dated 2021)
